# Reference: patent publication US11312939B2, “Constructs for chimeric antigen receptors” (Carisma Therapeutics Inc., priority 2020, dated 2022)
# Key:
# [1] = system: Human macrophages electroporated with HER2 CAR mRNA; assay: Cytokine treatment of HER2 CAR mRNA macrophages: viability, CAR expression, M1/M2 markers by flow cytometry; type: cell-based; conditions: days 2 and 7
# Method: Human macrophages were electroporated with HER2 CAR mRNA comprising m6AGCap1 and PsU modifications. Cells were cultured with cytokines that induce an M1 phenotype such as IFN-alpha, IFN-beta, IFN-gamma, IFN-gamma plus lipopolysaccharide (LPS), TNF-alpha, IL-6 or a STING ligand (STING-L) for up to 48 hours and then cytokines were washed off and fresh media was added. CAR expression and M1 marker expression were measured on days 2 and 7 after transfection. Fluorescent labeled HER2+ breast cancer cells (CRL2351) were co-cultured with HER2 CAR macrophages two days after the macrophages were transfected. Cancer cell growth was monitored via its fluorescence on an Incucyte® live imaging microscope every four hours. The Effector (CAR macrophage) to Target (cancer cell) ratio was 5:1.
# Five different mRNA modifications were also tested to determine if interferon treatment differentially affected macrophages transfected with mRNA comprising different modifications. Human macrophages were electroporated with HER2 CAR mRNA comprising different mRNA modifications. CAR expression and M1 markers were detected by Flow Cytometry (Attune) on day four after electroporation. Day 4 CAR macrophage cells were then co-cultured with a Nuc-Light labeled, HER2+ breast cancer cell line (CRL2351) at an Effector (CAR macrophage) to Target (cancer cell) ratio of 5:1. Cancer cell growth was monitored via its fluorescence on an Incucyte® live imaging microscope every four hours.
# Human macrophages were electroporated with 300 nM CAR mRNA comprising m6AGCap1 and PsU modifications. Cells were cultured with 20 ng/mL IFNs for 24 hours and then the cells were washed to remove cytokines. CAR expression was detected by Flow Cytometry (Attune) on day 2 after transfection. Cells were then co-cultured with a Nuc-Light labeled, HER2+ breast cancer cell line (CRL2351) at the Effector to Target ratio of 3:1. Cancer cell growth was monitored via its fluorescence on an Incucyte® live imaging microscope. CAR expression and M1 markers in macrophages were detected by Flow Cytometry (Attune) on day 7 after transfection.
# [2] = system: HER2 CAR macrophages co-cultured with HER2+ breast cancer cells (CRL2351); assay: Cytokine secretion of interferon treated HER2 CAR macrophages in co-culture (MSD); type: cell-based, human; conditions: E:T 3:1, supernatant at 48 hours
# Method: Human macrophages were electroporated with 150 nM HER2 CAR mRNA comprising m6AGCap1 and PsU modifications. HER2+ breast cancer cells (CRL2351) were co-cultured with CAR macrophages after the macrophages were transfected with the CAR mRNA at an Effector (CAR macrophage) to Target (cancer cell) ratio of 3:1. Supernatant was collected 48 hours after the cancer cells and macrophages were co-cultured and cytokine levels were measured using a Meso Scale Discovery (MSD) instrument.
# [3] = system: Human macrophages transfected with mCherry mRNA; assay: mCherry mRNA expression in transfected macrophages (Incucyte); type: cell-based; conditions: cultured one day with different doses
# Method: Human macrophages were transfected with mCherry mRNA comprising m6AGCap1 and PsU or N1 mPsU modifications and were then cultured for one day with different doses of IFN-γ. mCherry expression was monitored on an Incucyte® live imaging microscope.
# In order to determine whether an RNaseL inhibitor could rescue IFN-γ-induced instability of transfected mRNA, human macrophages were treated with 1 μM sunitinib (an RNaseL inhibitor) two hours prior to the transfection of mCherry mRNA comprising m6AGCap1 and PsU modifications. Transfected cells were then cultured for one day with different dosages of IFN-γ. mCherry expression was monitored on an Incucyte® live imaging microscope.
# The effect of another RNaseL inhibitor (RLI or ABCE1) was also tested to further validate the concept. Human macrophages were co-transfected with mRNA encoding mCherry comprising m6AGCap 1 and PsU modifications and with mRNA encoding ABCE1.
# [4] = system: CRL-2351 cells expressing nuclear GFP; assay: Priming of CAR macrophages with plate-coated agonists, tumor cell killing; type: cell-based; conditions: plate-coated protein, 3 h priming
# Method: (§1) To generate Her2-Zeta CAR expressing macrophages, primary human macrophages were suspended in EP buffer (MaxCyte) containing 300 nM mRNA (TriLink) at a concentration of 90×10^6 cells/mL. 100 μL of cell mixture was added to an electroporation cassette (OC100×2; MaxCyte) and electroporated using the Experimental T cell 1 setting. Cells were removed from the cassette, plated in 3 mL of TexMACS media (Miltenyi Biotech) containing 20% FBS (Gibco) on UpCell plates (Thermo Scientific), and incubated overnight at 37 C and 5% CO2.
# (§2) Recombinant CD40 ligand (Peprotech), 4-1BB ligand (Enzo Life Sciences), and 4-1BB receptor (Peprotech) were resuspended in molecular grade water to a stock concentration of 100 μg/mL. Stock solution was then used to create working solutions in PBS ranging from 2-0.002 μg/mL. 100 uL of working solution was added to wells in a 96-well plate and left at room temperature for 4 h.
# Plates were removed from the incubator and left at room temperature for 30 min. Cells were detached from plate, counted using the NC-200 automated cell counter (Chemomtech), and re-suspended in TexMACS media with 10% FBS. […] Cell lysis was detected using Incucyte® analysis (Essen Bioscience). Tumor cell death was calculated by integrated GFP intensity per well relative to time 0.
# [5] = system: Her2-Zeta CAR expressing macrophages; assay: Priming of CAR macrophages with plate-coated agonists, M1 and M2 surface markers; type: cell-based, human; conditions: plate-coated protein, 3 days
# Method: as §1, §2
# For detection of cell surface proteins, macrophages were plated onto wells coated with agonist molecules in a final volume of 200 uL TexMACS media+10% FBS+10 ng/mL GM-CSF and incubated for 3 days at 37 C and 5% CO2. Cells were incubated in 300 μL Accutase (Sigma) for 30 min and transferred to 96-well round bottom plate for staining. Cells were incubated in FACS buffer containing 20 μg/mL Her2-His for 20 min at RT, followed by incubation in Human TruStain FcX for 10 min at RT. […]
Molecule,M1 phenotype based on CD86 expression [1],M2 markers based on CD163 expression [1],"secretion of IL-6, IL-8 and TNFα from macrophages [2]",mCherry mRNA expression [3],tumor killing ability of macrophages and CAR macrophages [4],M1 phenotype of mRNA CAR macrophages (M1 and M2 markers) [5]
IFN-α,induction of an M1 phenotype,reduction of M2 markers,"increased secretion of the cytokines IL-6, IL-8 and TNFα",–,–,–
IFN-γ: interferon cytokine that induces an M1 phenotype,induction of an M1 phenotype,reduction of M2 markers,"increased secretion of the cytokines IL-6, IL-8 and TNFα",reduced mCherry mRNA expression,–,–
"CD40L: Recombinant CD40 ligand (Peprotech), CD40 agonist (protein, UniProt P29965 113-261, looked up) CD40 ligand, soluble form: MQKGDQNPQIAAHVISEASSKTTSVLQWAEKGYYTMSNNLVTLENGKQLTVKRQGLYYIYAQVTFCSNREASSQAPFIASLCLKSPGRFERILLRAANTHSSAKPCGQQSIHLGGVFELQPGASVFVNVTDPSQVSHGTGFTSFGLLKL",–,–,–,–,significantly improved the tumor killing ability,induced an M1 phenotype
